Tests used:
[1] = Emulsion copolymerization of hexafluoropropylene and vinylidene fluoride
Description: The following procedure was used to evaluate C7 F15 CF(CF3)COO^- NH4^+ (from Ex. M1) as an emulsifier to copolymerize hexafluoropropylene (HFP) and vinylidene fluoride.
A 1 gallon, vertically agitated stainless steel reactor with pressure and temperature controls was evacuated and twice purged with nitrogen. Using an isolated vacuum, a solution comprised of 2 g of ammonium persulfate (initiator) and 6 g of dipotassium phosphate dissolved in 2800 g of deionized water was introduced into the reactor. The remaining vacuum on the reactor was vented with nitrogen, and the solution was degassed twice under agitation using alternate vacuum and nitrogen purges. A sufficient amount of a solution of C7 F15 CF(CF3)COO^- NH4^+ in approximately 20 g of 60-70° C. deionized water was introduced to the reactor under isolated vacuum to give a calculated final concentration of 350 ppm emulsifier in the aqueous solution. The reactor was vented with nitrogen, the solution was agitated very briefly, and the reactor was evacuated of nitrogen and isolated. Then the reactor was vented with hexafluoropropylene monomer to a pressure of approximately 10 psig (1280 torr total pressure), and the temperature of the batch was raised to 72° C. with high agitation. Maintaining the temperature at 72° C., a monomer mixture of 60% (wt) of vinylidene fluoride and 40% (wt) hexafluoropropylene was fed from a tared gas cylinder into the head space of the reactor to maintain a reactor pressure of 130 psig (7480 total pressure). After feeding in about 1 kg of monomer blend (approximately 3.75 hours duration), the introduction of monomer was ceased, the reaction was allowed to cool to room temperature, and any residual unreacted monomer was vented.
The resulting latex polymer was drained from the reactor, and percent solids of the latex was determined to be 25% by weight as measured by drying 10 g of latex in a forced air oven for 16 hours at 105° C.
The reactor body was separated from the reactor head, and a visual inspection of the reactor was made to determine the amount of coagulated polymer in the reactor (the amount should be minimal in a good polymerization reaction). A qualitative rating was assessed, ranging from "none" to "little" to "some."
The latex stability was determined by half filling a 16 oz (450 mL) jar with latex and shaking several hours in the horizontal position, quantitatively rating the latex after shaking using a 3-point scale ranging from 0=very stable to 3=unstable.
Particle size in the latex was determined using 90° scattering on a Coulter sub-micron particle size analyzer.
Degree of foaming was rated using the following qualitative scale: 0=not foamy, 1=slightly foamy, 2=moderately foamy, and 3=very foamy.
In Example P2, the same experiment was run as in Example P1, except that the concentration of C7 F15 CF(CF3)COO^- NH4^+emulsifier was raised to 3500 ppm, the reaction time decreased from 3.75 to 3.5 hours, and the reaction temperature increased from 72° C. to 78° C.
In Comparative Examples P3-P6, the same experiment was run as in Example P1, except that C8 F17 SO2 N(C2 H5)CH2 COO^- K^+ (Fluorad™ FC-128 Fluorochemical Surfactant, available from 3M Company, St. Paul, Minn.), C7 F15 COO^- H4 N^+ (Fluorad™ FC-143 Fluorochemical Surfactant), and Surflon™ S111S Fluorochemical Surfactant (believed to be nominally telomer-based n-C9 F19 COO^- H4 N^+, commercially available from Asahi Glass Corp., Japan) were substituted for C7 F15 CF(CF3)COO^- HN^+ emulsifier.

[2] = Thermal degradation in aqueous media; assay type: physicochemical; conditions: for volatile products formed: aqueous, approximately 80° C. for several hours, or similar way
Experimental: The thermal degradation of an aqueous α-branched perfluoroalkylcarbonyl fluoride and the characterization of the products produced from the degradation were carried out using the following procedure. […] 5.7 g of volatile degradation products were then collected by azeotropic distillation using a Dean-Stark apparatus.
The thermal degradation of C7 F15 CF(CF3)COF (from Example A4) dispersed in water was also carried out by heating the aqueous mixture for several hours at approximately 80° C.

[3] = Degradation in aqueous solution at room temperature over 1 year; assay type: physicochemical
Experimental: The α-branched open chain ammonium salt compounds from Examples N3-N6 were dissolved in deionized water at a concentration of 5% by weight (0.5 g ammonium salt in 10 mL water) and were stored at room temperature.

[4] = Surface tension and critical micelle concentration of aqueous surfactant solutions; assay type: physicochemical; conditions: Table 5, deionized water; for Surf. Tens.: at the CMC
Experimental: Critical Micelle Concentration (CMC): The critical micelle concentration is defined as the concentration at which further surface tension is no longer lowered with increasing levels of surfactant. To determine CMC, surface tension is measured as a function of surfactant concentration using a K-12 Processor Tensiometer in conjunction with a 665 Dosimat automatic surfactant injection device (also commercially available from Kruss GmbH). Surface tension is then plotted vs. log concentration and the data points are connected. The resulting curve has a nearly horizontal flat portion at concentrations above the CMC and has a negative steep slope at concentrations below the CMC. The CMC is defined as the lowest surfactant concentration in the horizontal flat portion of the curve.
(§1) Then the critical micelle concentration (CMC) was determined for each surfactant.
as §1

[5] = Thermogravimetric analysis of neat perfluorocarboxylate salts; assay type: physicochemical; conditions: neat salt, nitrogen, 10° C./min
Description: Thermal degradation measurements were made on a series of neat perfluorocarboxylate salts, including several α-branched open chain structures (Examples N2-N9), a primarily linear open chain structure (Example N10-Fluorad™ FC-143 Fluorochemical Surfactant, commercially available from 3M Company, St. Paul, Minn.), and a closed chain (i.e., cyclic) structure (Example N11--made by the electrochemical fluorination of benzoic acid and hydrolysis in the presence of KOH, as described in U.S. Pat. No. 2,567,011 (Diesslin et al.)).
The perfluorocarboxylate salts were tested using a Perkin-Elmer TGA 7 thermogravimetric analysis apparatus and a salt sample size of approximately 5 mg, a heating rate of 10° C./min, and a nitrogen gas flow rate of 40-45 mL/min. Using the TGA 7 software, the following temperatures were recorded: (1) the onset temperature of decomposition, (2) the temperature at which 50% of the sample weight was lost, and (3) the temperature at which 90% of the sample weight was lost.

rats [6] = test: Rat desiccator jar chamber test, exhaled degradation products; assay type: in vivo
Experimental: Additional biological testing of C7 F15 CF(CF3)COO^- NH4^+ in rats was conducted using the following test apparatus. An uptake desiccator jar chamber was designed with top and bottom portions, the top portion equipped with an inlet port, an outlet port, oxygen monitor and pressure gage. An oxygen gas tank supplied oxygen into the inlet port, and the oxygen level in the chamber was maintained at a normal ambient level as measured by the oxygen monitor and pressure gage. The outlet port was connected in series with a carbon dioxide scrubber and particulate filter, which in turn was connected to a loop containing a stainless steel bellows pump operating at about 2 L/min. Most of the gas in the loop was recycled into the inlet port, but about 100 mL/min was directed through a secondary loop to a gas chromatograph equipped with a 0.5 mL gas sampling loop.
A rat dosed at 500 mg/kg was placed in the bottom portion of the chamber, the top portion was attached, and the assembled chamber was placed in an ice-filled pan to allow for the condensation of water. The oxygen flow was started, and the exhaust gases were monitored for the presence of CF3 CF=CF(C6 F13) and C7 F15 CFHCF3, aqueous degradation products of C7 F15 CF(CF3)COOH, using known standards of this olefin and hydride in the gas chromatograph. […] After 24 minutes, one slight chromatographic peak was noted, corresponding to the monohydride. After 92 minutes, the peak became noticeably larger and a second peak formed, corresponding to the olefin.

rats [7] = test: Acute LD50, one-time feeding study of rats over 21 days; assay type: in vivo, rat; conditions: for acute toxicity: rat, in vivo
Experimental: (§2) Acute LD50 measurements for a one-time feeding study of rats were determined over a 21 day period for both the α-branched perfluorocarboxylate salt, C7 F15 CF(CF3)COO^- NH4^+, and its straight chain isomer, CF3 (CF2)8 COO^- NH4^+.

[8] = as above; assay type: in vivo, rat; conditions: rat, in vivo, po; one-time feeding, rats, 21 day period
Experimental: as §2

rats [9] = conditions: Goeche-Flora et al.; cited from earlier work
[10] = Hydrolytic stability of esters in concentrated aqueous ammonium hydroxide; assay type: physicochemical; conditions: 2 days
Description: The acrylate and methacrylate esters from Examples D1-D11 were fully recoverable with essentially no degradation after being stirred with concentrated aqueous ammonium hydroxide for a period of 2 days.

CCN(CC(=O)O)S(=O)(=O)C(F)(F)C(F)(F)C(F)(F)C(F)(F)C(F)(F)C(F)(F)C(F)(F)C(F)(F)F [Fluorad ™ FC-128, C8 F17 SO2 N(C2 H5)CH2 COO^- K^+]
Latex Stability ([1]; emulsifier 100 ppm): 2
Latex Stability ([1]; emulsifier 350 ppm): 0

O=C(F)C(F)(C(F)(F)F)C(F)(F)C(F)(F)C(F)(F)C(F)(F)C(F)(F)C(F)(F)C(F)(F)F (centres unmarked) [Example A4, C7 F15 CF(CF3)COF]
volatile products formed [2]: The same volatile products were formed as in Example N1
volatile degradation products collected ([2]; from 8 g, refluxed in deionized water 2 hours): 5.7 g
monohydride in volatile degradation products ([2]; in water): 85%
olefin in volatile degradation products ([2]; in water): 15%

O=C(O)C(F)(F)C(F)(F)C(F)(F)C(F)(F)C(F)(F)C(F)(F)C(F)(F)F [FC-143, C7 F15 COO^- H4 N^+]
degradation after 1 year [3]: no signs of degradation
Latex Stability ([1]; emulsifier 350 ppm): 2
Surf. Tens. [4]: 21.5 dynes/cm
CMC [4]: 8000 ppm
Temperature for: 50% loss [5]: 188 °C
Temperature for: 90% loss [5]: 202 °C
Temperature for: Onset [5]: 173 °C

O=C(O)C(F)(C(F)(F)F)C(F)(F)C(F)(F)C(F)(F)C(F)(F)C(F)(F)C(F)(F)C(F)(F)F (centres unmarked) [Example M14, C7 F15 CF(CF3)COO^- H4 N^+]
olefin and monohydride in exhaust gas (rats [6]; after 217 minutes): both peaks became significantly larger
olefin and monohydride in exhaust gas (rats [6]; initially): no olefin or hydride were detected
metabolism and elimination (rats [6]; rat): being metabolized by the rat to volatile metabolites which were eliminated from the rat via transpiration
post-exposure observation (rats [6]; rat dosed at 500 mg/kg): no evidence of toxicity (death) or evidence of wasting syndrome
time at which monohydride peak noted in exhaust gas (rats [6]; rat dosed at 500 mg/kg): 24 min
time at which olefin peak formed in exhaust gas (rats [6]; rat dosed at 500 mg/kg, monohydride peak noticeably larger): 92 min
acute toxicity (rats [7]; listed as C7 F15 CF(CF3)COO^- NH4): relatively low toxicity
acute toxicity (rats [7]; listed as C7 F15 CF(CF3)COO^- NH4+): only slightly toxic
time of deaths from toxic doses (rats [7]; rats): 2 to 3 days
time until rats began regaining weight (rats [7]; rats): 3 days
wasting syndrome (rats [7]; rats): No wasting syndrome was noted
LD50 at 504 h [8]: 500 to 1000 mg/kg
Latex Stability ([1]; emulsifier 350 ppm): 2
Latex Stability ([1]; emulsifier 3500 ppm): 0
Surf. Tens. [4]: 16.5 dynes/cm
CMC [4]: 2500 ppm
Temperature for: 50% loss [5]: 163 °C
Temperature for: 90% loss [5]: 174 °C
Temperature for: Onset [5]: 151 °C

O=C(O)C(F)(C(F)(F)F)C(F)(F)C(F)(F)C(F)(F)C(F)(F)C(F)(F)C(F)(F)C(F)(F)C(F)(F)C(F)(F)C(F)(F)F (centres unmarked) [Example M18, C10 F21 CF(CF3)COO^- H4 N^+]
Surf. Tens. [4]: 14.8 dynes/cm
CMC [4]: 600 ppm
Temperature for: 50% loss [5]: 181 °C
Temperature for: 90% loss [5]: 188 °C
Temperature for: Onset [5]: 164 °C

O=C(O)C(F)(F)C(F)(F)C(F)(F)C(F)(F)C(F)(F)C(F)(F)C(F)(F)C(F)(F)C(F)(F)F [C9 F19 COO^- NH4^+, CF3 (CF2)8 COO^- NH4^+, reference compound]
acute toxicity (rats [7]): moderately toxic
wasting syndrome (rats [7]; rats): Wasting syndrome was observed
toxicity relative to the α-branched isomer (rats [7]; rats, LD50): ca. 10 times
LD50 at 504 h [8]: 50 to 100 mg/kg
toxicity (literature, words) (rats [9]): moderately toxic

C=CC(=O)OCCOC(=O)C(F)(F)C(F)(F)C(F)(F)C(F)(F)C(F)(F)C(F)(F)C(F)(F)F [C7 F15 COOCH2 CH2 OCOCH=CH2]
hydrolytic stability [10]: readily hydrolyzed

O=C(O)C(F)(C(F)(F)F)C(F)(F)C(F)(F)C(F)(F)C(F)(F)C(F)(F)C(F)(F)C(F)(F)F (centres unmarked) [Example M1, C7 F15 CF(CF3)COOH]
volatile products formed [2]: the same monohydride and olefin

Reference: patent US5998521A, “Aqueous fluoropolymer compositions and method of preparing the same” (3M Innovative Properties Company, priority 1996, dated 1999)
